In patent publication US20230147835A1, “METHODS OF TREATING SYSTEMIC SCLEROSIS” (Horizon Therapeutics Ireland DAC, priority 2020, published 2023):
Entries after “also recorded” stand apart in the source; their conditions may differ.

How the values were obtained:
[1] = system: bleomycin-induced skin fibrosis; test: Bleomycin-induced skin fibrosis model, therapeutic protocol; assay type: in vivo, mouse; conditions: 50 mg/kg/day
Excerpt: (§1) Two models of skin fibrosis were used to evaluate the effect of Compound 1 in comparison with imatinib mesylate, used as a reference.

tight skin (Tsk-1) mice = test: Tight skin (Tsk-1) mice skin fibrosis model; assay type: in vivo, mouse; conditions: 30 mg/kg/day; reference imatinib
Excerpt: as §1

[2] = system: hypertension-induced or nephrotoxicity-induced renal failure; test: Models of hypertension-induced or nephrotoxicity-induced renal failure; conditions: in vivo
Excerpt: (§2) All these pathological events can be observed in SSc patients at different levels and further support the use of Compound 1 in these patients.

[3] = system: hypertension or diabetes-related cardiac hypertrophy, fibrosis and heart failure; test: Models of hypertension or diabetes-related cardiac hypertrophy, fibrosis and heart failure; conditions: in vivo
Excerpt: as §2

models of thrombosis [4] = test: Acute models of coagulation and arterial thrombosis (rats); assay type: in vivo; conditions: two models in rats
Excerpt: as §2

models of thrombosis [5] = test: Model of thrombosis (mouse); assay type: in vivo; conditions: one model in mouse
Excerpt: as §2

[6] = system: presensitized mice treated with ovalbumin; test: Broncho-alveolar lavage of presensitized mice treated with ovalbumin; conditions: mouse, in vivo
Phase 1 studies = assay type: in vivo; conditions: multiple Phase 1 studies
Excerpt: See, Khanna, et al. (2007) Curr Rheumatol Rep. 9:151-7, which is incorporated herein by reference for all purposes.

[7] = system: patients with early dcSSc; test: Phase 2 8-week double-blind placebo-controlled study with 16-week open-label extension; assay type: in vivo, human
Excerpt: The primary end point was safety during the double-blind phase of the trial. Exploratory end points included the identification of an LPA-induced gene signature in patients' skin.
Seventeen of 32 patients were randomly assigned to receive placebo and 15 to receive Compound 1. Thirty patients participated in the open-label extension study. […] At week 8, the reduction in MRSS was numerically greater in the Compound 1 group than in the placebo group (mean±SD change −3.57±4.18 versus −2.76±4.85; treatment effect −1.2 [95% confidence interval −4.37, 2.02]).

[8] = molecular target: lysophosphatidic acid receptor 1 (LPAR1) (Homo sapiens, UniProt Q92633); conditions: cited from earlier work
[9] = 24-weeks of continuous treatment
[10] = Subjects switched from placebo to Compound 1 (16-week open label extension)
[11] = initial Compound 1 group, treatment up to 24 weeks, versus baseline

Chain of lysophosphatidic acid receptor 1 (LPAR1) (Q92633 whole entry, species assumed): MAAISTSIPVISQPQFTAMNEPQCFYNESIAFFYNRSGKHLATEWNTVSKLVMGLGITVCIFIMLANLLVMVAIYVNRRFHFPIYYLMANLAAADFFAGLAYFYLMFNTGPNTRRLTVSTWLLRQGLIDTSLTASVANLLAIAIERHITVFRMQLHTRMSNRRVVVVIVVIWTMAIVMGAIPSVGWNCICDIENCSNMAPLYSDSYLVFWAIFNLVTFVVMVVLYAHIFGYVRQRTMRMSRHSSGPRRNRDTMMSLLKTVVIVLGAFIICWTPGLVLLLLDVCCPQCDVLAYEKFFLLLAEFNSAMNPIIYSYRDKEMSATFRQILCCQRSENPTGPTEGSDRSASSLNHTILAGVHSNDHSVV

COc1ccc(C(=O)NC2(C(=O)O)Cc3ccccc3C2)cc1OCCc1cccc(C)c1 [Compound 1, 2-(4-methoxy-3-(3-methylphenethoxy)benzamido)-2,3-dihydro-1H-indene-2-carboxylic acid]
collagen content in mouse skin ([1]; therapeutic protocol): able to reverse | dermal thickness in mouse skin ([1]; therapeutic protocol): able to reverse | myofibroblast differentiation in mouse skin ([1]; therapeutic protocol): able to reverse | effect on these markers compared with imatinib ([1]; reference imatinib mesylate): comparable with the effects of imatinib | progression of skin fibrosis (tight skin (Tsk-1) mice): inhibit the progression of skin fibrosis at a similar level than imatinib | kidney fibrosis [2]: inhibits fibrosis | kidney function [2]: improved kidney function | arterial stiffness [3]: positive effect | blood pressure [3]: mostly unchanged | cardiac function and structure [3]: beneficial effect | cardiac systolic and diastolic function [3]: improves | heart fibrosis [3]: inhibits fibrosis | antithrombotic activity (models of thrombosis [4]): moderate but significant antithrombotic activity; also recorded: demonstrated antithrombotic activity | antithrombotic activity (models of thrombosis [5]): demonstrated antithrombotic activity | accumulation of leukocytes and total inflammatory cells in broncho-alveolar lavage [6]: significant inhibitory effect | inflammation in a model of lung injury with predominant Th2-type response [6]: reduces inflammation | safety and tolerability (Phase 1 studies): safe and well tolerated | Median Decrease in mRSS [7, 9]: −7.5 | Responder Rate [7, 9]: 78.6% | LPA-related genes, biomarker analysis of skin biopsies ([7]; FIG. 1): reductions | Modified Rodnan Skin Score (mRSS) ([7]; Phase 2 double-blind phase and open label extension): improvement | Median Decrease in mRSS [7, 10]: −7.0 | Responder Rate [7, 10]: 69.2% | most frequent adverse events ([7]; blinded phase): headache, diarrhea, nausea, and falling | MRSS during the study ([7]; difference was not significant): improved | tolerability in patients with dcSSc ([7]; in vivo): well tolerated | disease biomarker COMP [7, 11]: numerical improvement versus baseline | disease biomarker TSP1 [7, 11]: numerical improvement versus baseline | safety profile ([7]; open-label extension): acceptable | reduction of LPA-related genes in skin samples versus placebo ([7]; week 8): greater reduction | change in MRSS (mean±SD) ([7]; week 8, double-blind phase): −3.57±4.18 | treatment effect on MRSS versus placebo ([7]; week 8, 95% confidence interval −4.37, 2.02): −1.2 | HAQ-DI ([7]; week 24): clinically significant improvement | antagonist of lysophosphatidic acid receptor 1 (LPAR1) [8]: potent antagonist
